Assay results published in PubChem BioAssay AID256 (DTP/NCI, 2004).
Several values for one entry are separate records, joined by “and”; a condition that tells them apart may be missing. Identical values can stand only once. Inconclusive results and toxic doses are left out. The calls were made as follows: active = survival T/C of 150% or more; inactive = T/C below 125% in these data.

Tested on: CD2F1 mice, L1210 leukemia ip, survival T/C
Assay: NCI In Vivo Anticancer Drug Screen. Data for tumor model L1210 Leukemia (intraperitoneal) in CD2F1 (CDF1) mice
Details: higher = longer survival
Procedure, shortened: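 Vehicle-treated tumor-bearing mice served as controls (C) for compound-treated mice (T). Reported figure is T divided by C.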

[1] = endpoint: mean survival time, dose: 50.0 mg/kg/injection, schedule: Q01DX009 (ip), vehicle: Klucel (hydroxypropylcellulose) (HPC)
[2] = endpoint: mean survival time, dose: 100.0 mg/kg/injection, schedule: Q01DX009 (ip), vehicle: Klucel (hydroxypropylcellulose) (HPC)
[3] = endpoint: mean survival time, dose: 200.0 mg/kg/injection, schedule: Q01DX009 (ip), vehicle: Klucel (hydroxypropylcellulose) (HPC)
[4] = endpoint: mean survival time, dose: 100.0 mg/kg/injection, schedule: Q04DX003 (ip), vehicle: saline
[5] = endpoint: mean survival time, dose: 200.0 mg/kg/injection, schedule: Q04DX003 (ip), vehicle: saline
[6] = endpoint: mean survival time, dose: 100.0 mg/kg/injection, schedule: Q01DX009 (ip), vehicle: saline sonified
[7] = endpoint: mean survival time, dose: 100.0 mg/kg/injection, schedule: Q01DX009 (ip), vehicle: saline with Tween-80
[8] = endpoint: mean survival time, dose: 100.0 mg/kg/injection, schedule: Q04DX003 (ip), vehicle: saline with Tween-80
[9] = endpoint: mean survival time, dose: 200.0 mg/kg/injection, schedule: Q01DX009 (ip), vehicle: saline with Tween-80
[10] = endpoint: mean survival time, dose: 200.0 mg/kg/injection, schedule: Q04DX003 (ip), vehicle: saline with Tween-80
[11] = endpoint: mean survival time, dose: 400.0 mg/kg/injection, schedule: Q04DX003 (ip), vehicle: saline with Tween-80
[12] = endpoint: mean survival time, dose: 100.0 mg/kg/injection, schedule: Q01DX001 (ip), vehicle: saline with Tween-80
[13] = endpoint: mean survival time, dose: 200.0 mg/kg/injection, schedule: Q01DX001 (ip), vehicle: saline with Tween-80
[14] = endpoint: mean survival time, dose: 400.0 mg/kg/injection, schedule: Q01DX009 (ip), vehicle: saline with Tween-80
[15] = endpoint: mean survival time, dose: 50.0 mg/kg/injection, schedule: Q04DX002 (ip), vehicle: saline with Tween-80
[16] = endpoint: mean survival time, dose: 100.0 mg/kg/injection, schedule: Q04DX002 (ip), vehicle: saline with Tween-80

Measured: T/C

Clc1ncnc2c1ncn2CCCn1cnc2c(Cl)ncnc21
inactive: endpoint: mean survival time, dose: 12.5 mg/kg/injection, schedule: Q01DX009 (ip), vehicle: Klucel (hydroxypropylcellulose) (HPC) 94 % of control | endpoint: mean survival time, dose: 25.0 mg/kg/injection, schedule: Q01DX009 (ip), vehicle: Klucel (hydroxypropylcellulose) (HPC) 90 % of control | [1] 94 % of control | [2] 103 % of control | [3] 101 % of control

CC(C)S(=O)(=O)/C=C(\I)c1ccccc1
inactive: [4] 100 % of control | [5] 102 % of control

CC(C)c1cc2c(cc1O)C1(C)CCCC(C)(C#N)C1CC2 (stereo unspecified)
inactive: [6] 95 % of control | endpoint: mean survival time, dose: 200.0 mg/kg/injection, schedule: Q01DX009 (ip), vehicle: saline sonified 89 % of control | endpoint: mean survival time, dose: 400.0 mg/kg/injection, schedule: Q01DX009 (ip), vehicle: saline sonified 91 % of control

CCOC(=O)Cn1cnc2cc(C)c(C)cc21
inactive: [7] 101 % of control | [8] 94 % of control | [9] 94 % of control | [10] 100 % of control | [11] 96 % of control

CCOC(=O)C1=C(Nc2ccc(OC)cc2)C(N)=NC1=N
inactive: endpoint: median survival time, dose: 6.25 mg/kg/injection, schedule: Q01DX005 (ip), vehicle: suspension in saline 98 % of control | endpoint: median survival time, dose: 12.5 mg/kg/injection, schedule: Q01DX005 (ip), vehicle: suspension in saline 101 % of control and 107 % of control | endpoint: median survival time, dose: 25.0 mg/kg/injection, schedule: Q01DX005 (ip), vehicle: suspension in saline 101 % of control and 107 % of control | endpoint: median survival time, dose: 36.0 mg/kg/injection, schedule: Q01DX005 (ip), vehicle: saline 105 % of control and 108 % of control | endpoint: median survival time, dose: 50.0 mg/kg/injection, schedule: Q01DX005 (ip), vehicle: saline 111 % of control | endpoint: median survival time, dose: 50.0 mg/kg/injection, schedule: Q01DX005 (ip), vehicle: suspension in saline 101 % of control and 107 % of control | endpoint: median survival time, dose: 60.0 mg/kg/injection, schedule: Q01DX005 (ip), vehicle: saline 102 % of control | endpoint: median survival time, dose: 100.0 mg/kg/injection, schedule: Q01DX005 (ip), vehicle: saline 106 % of control | endpoint: median survival time, dose: 100.0 mg/kg/injection, schedule: Q01DX005 (ip), vehicle: suspension in saline 117 % of control

Cc1c2c(cc3c1CCC1(C)C(C(C)CCC(C)C(C)C)CC(O)C31O)CCCC2 (stereo unspecified)
inactive: endpoint: mean survival time, dose: 50.0 mg/kg/injection, schedule: Q01DX001 (ip), vehicle: saline with Tween-80 92 % of control | [12] 94 % of control | [8] 96 % of control | [13] 92 % of control | [10] 98 % of control | [11] 98 % of control

CCCCN(C)C(=O)Oc1cccc(NC(=O)OC)c1
inactive: [7] 94 % of control | [9] 100 % of control

O=C(CC(Cl)c1ccccc1)c1ccccc1 (stereo unspecified)
inactive: [7] 91 % of control | [8] 94 % of control | [9] 96 % of control | [10] 98 % of control | [14] 91 % of control | [11] 90 % of control

O=C(/C=C(/c1ccccc1)P(=O)(c1ccccc1)c1ccccc1)c1ccccc1
inactive: [8] 98 % of control | [10] 93 % of control | [11] 88 % of control

Oc1cc(O)c2c(c1)OC(c1ccc(O)c(O)c1)C(O)C2c1c(O)cc(O)c2c1OC(c1ccc(O)c(O)c1)C(O)C2 (stereo unspecified)
inactive: [4] 107 % of control | [5] 95 % of control | endpoint: mean survival time, dose: 400.0 mg/kg/injection, schedule: Q04DX003 (ip), vehicle: saline 104 % of control

O=C(CCBr)c1ccc(Cl)cc1
inactive: [6] 97 % of control

c1ccc(CN=NNc2ccccc2)cc1
inactive: endpoint: mean survival time, dose: 75.0 mg/kg/injection, schedule: Q01DX001 (ip), vehicle: saline 94 % of control | endpoint: mean survival time, dose: 150.0 mg/kg/injection, schedule: Q01DX001 (ip), vehicle: saline 100 % of control | endpoint: mean survival time, dose: 300.0 mg/kg/injection, schedule: Q01DX001 (ip), vehicle: saline 103 % of control

COc1cc(/C=N/Nc2ccc([N+](=O)[O-])cc2)cc(OC)c1OC
inactive: [7] 97 % of control | [9] 94 % of control | [14] 98 % of control

O=C(OC(C(=O)O)C(OC(=O)c1ccccc1)C(=O)O)c1ccccc1 (stereo unspecified) (tested in a mixture with another compound)
inactive: [15] 92 % of control | [12] 105 % of control | [16] 106 % of control | [8] 101 % of control | [13] 100 % of control | endpoint: mean survival time, dose: 200.0 mg/kg/injection, schedule: Q04DX002 (ip), vehicle: saline with Tween-80 95 % of control | [10] 106 % of control | endpoint: mean survival time, dose: 400.0 mg/kg/injection, schedule: Q01DX001 (ip), vehicle: saline with Tween-80 97 % of control | [11] 98 % of control

ClC=C(c1ccc(Cl)cc1)c1ccc(Cl)cc1
inactive: [8] 97 % of control | [10] 97 % of control | [11] 101 % of control

Cc1c2[nH]c(c1CCC(=O)O)/C=c1\[n-]/c(c(C)c1CCC(=O)O)=C\c1[n-]c(c(C)c1C(C)O)/C=c1\[nH]/c(c(C)c1C(C)O)=C\2.[Cl][Pt+2][Cl] (stereo unspecified)
inactive: endpoint: mean survival time, dose: 12.5 mg/kg/injection, schedule: Q04DX003 (ip), vehicle: Klucel (hydroxypropylcellulose) (HPC) 88 % of control | endpoint: mean survival time, dose: 25.0 mg/kg/injection, schedule: Q04DX003 (ip), vehicle: Klucel (hydroxypropylcellulose) (HPC) 90 % of control | endpoint: mean survival time, dose: 50.0 mg/kg/injection, schedule: Q04DX003 (ip), vehicle: Klucel (hydroxypropylcellulose) (HPC) 93 % of control | endpoint: mean survival time, dose: 100.0 mg/kg/injection, schedule: Q04DX003 (ip), vehicle: Klucel (hydroxypropylcellulose) (HPC) 88 % of control

O=P(O)(O)CCc1ccccc1
inactive: endpoint: mean survival time, dose: 50.0 mg/kg/injection, schedule: Q04DX003 (ip), vehicle: saline 95 % of control | [4] 90 % of control | [5] 96 % of control

Cc1ccc(S(=O)(=O)N/N=C/c2ccccc2)cc1
inactive: [1] 95 % of control | [2] 98 % of control | [3] 101 % of control | endpoint: mean survival time, dose: 400.0 mg/kg/injection, schedule: Q01DX009 (ip), vehicle: Klucel (hydroxypropylcellulose) (HPC) 91 % of control

O=NN(CCCl)C(=O)Nc1cc2c3ccccc3ccc2c2ccccc12
inactive: endpoint: mean survival time, dose: 177.0 mg/kg/injection, schedule: Q01DX009 (ip), vehicle: saline with Tween-80 102 % of control | endpoint: mean survival time, dose: 265.0 mg/kg/injection, schedule: Q01DX009 (ip), vehicle: saline with Tween-80 98 % of control | [14] 102 % of control | endpoint: mean survival time, dose: 600.0 mg/kg/injection, schedule: Q01DX009 (ip), vehicle: saline with Tween-80 89 % of control

COC(=O)C(C)C1CCC2C3=CC=C4CC(OC(C)=O)CCC4(C)C3=CCC21C (stereo unspecified)
inactive: endpoint: mean survival time, dose: 100.0 mg/kg/injection, schedule: Q01DX001 (ip), vehicle: Klucel (hydroxypropylcellulose) (HPC) 98 % of control | endpoint: mean survival time, dose: 200.0 mg/kg/injection, schedule: Q01DX001 (ip), vehicle: Klucel (hydroxypropylcellulose) (HPC) 92 % of control | endpoint: mean survival time, dose: 400.0 mg/kg/injection, schedule: Q01DX001 (ip), vehicle: Klucel (hydroxypropylcellulose) (HPC) 92 % of control

CCCCCCCCCCCCOC(=O)C[n+]1cccc(C(=O)Nc2ccccc2)c1
inactive: endpoint: mean survival time, dose: 25.0 mg/kg/injection, schedule: Q01DX009 (ip), vehicle: saline with Tween-80 95 % of control | [8] 102 % of control

O=C(Nc1ccc(Oc2ccc(Cl)c(Cl)c2)c(Cl)c1)Nc1cc(Cl)c(Cl)cc1S(=O)(=O)O
inactive: endpoint: mean survival time, dose: 100.0 mg/kg/injection, schedule: Q01DX001 (ip), vehicle: saline sonified 96 % of control | [7] 97 % of control | endpoint: mean survival time, dose: 200.0 mg/kg/injection, schedule: Q01DX001 (ip), vehicle: saline sonified 93 % of control | endpoint: mean survival time, dose: 400.0 mg/kg/injection, schedule: Q01DX001 (ip), vehicle: saline sonified 96 % of control

CCCCSP(=O)(CCl)SCCCC
inactive: endpoint: mean survival time, dose: 25.0 mg/kg/injection, schedule: Q04DX002 (ip), vehicle: saline with Tween-80 93 % of control | [15] 97 % of control | [16] 93 % of control

O=C(O)CCC(=O)c1ccc(Br)cc1
inactive: [7] 94 % of control | [8] 101 % of control | [9] 103 % of control | [10] 97 % of control | [14] 91 % of control | [11] 89 % of control

CCOCCNCc1ccc(Cl)cc1Cl
inactive: [8] 91 % of control | [10] 94 % of control

Cc1ccc(S(=O)(=O)N/N=C2/CC3CCC(C)(C2)C3)cc1 (stereo unspecified)
inactive: [11] 94 % of control

O=C(O)c1ccccc1C(c1ccccc1)c1ccccc1
inactive: endpoint: mean survival time, dose: 50.0 mg/kg/injection, schedule: Q01DX009 (ip), vehicle: saline with Tween-80 94 % of control | [7] 94 % of control

NC(CCC(=O)OCc1ccccc1)C(=O)OCc1ccccc1 (stereo unspecified)
inactive: endpoint: mean survival time, dose: 50.0 mg/kg/injection, schedule: Q01DX009 (ip), vehicle: saline 106 % of control | endpoint: mean survival time, dose: 100.0 mg/kg/injection, schedule: Q01DX009 (ip), vehicle: saline 93 % of control | [4] 97 % of control | endpoint: mean survival time, dose: 200.0 mg/kg/injection, schedule: Q01DX009 (ip), vehicle: saline 87 % of control | [5] 108 % of control
